Source: ChEMBL document CHEMBL3885881, “DrugMatrix”

Species on record: Rattus norvegicus
Assay: DrugMatrix - Regimen: Daily Repeat
Assay type: toxicity, organism-based, Sprague-Dawley
Design: regimen Daily Repeat, gender Male, age 6-8 weeks
Conditions: in vivo, po, route oral GAVAGE, vehicle .5 % CMC; for ABSOLUTE BASOPHIL / ABSOLUTE EOSINOPHIL / ABSOLUTE LYMPHOCYTE / ABSOLUTE MONOCYTE / ABSOLUTE SEGMENTED NEUTROPHIL / BASOPHIL / EOSINOPHIL / ERYTHROCYTE COUNT / HEMATOCRIT / HEMOGLOBIN / LEUKOCYTE COUNT / LYMPHOCYTE / MEAN CORPUSCULAR HEMOGLOBIN / MEAN CORPUSCULAR HEMOGLOBIN CONCENTRATION / MEAN CORPUSCULAR VOLUME / MONOCYTE / NEUTROPHIL / NUCLEATED RED BLOOD CELLS / PLATELET COUNT: tissue Blood; for ALANINE AMINOTRANSFERASE / ALBUMIN / ALKALINE PHOSPHATASE / ASPARTATE AMINOTRANSFERASE / BLOOD UREA NITROGEN / CARBON DIOXIDE / CHLORIDE / CHOLESTEROL / CREATINE PHOSPHOKINASE / CREATININE / GLUCOSE / LACTATE DEHYDROGENASE / LIPASE / PHOSPHORUS / POTASSIUM / SODIUM / TOTAL BILIRUBIN / TOTAL PROTEIN / URIC ACID: tissue Plasma
[1] = 10 mg/kg, 72 h, dose level Low, time 3 day
[2] = 10 mg/kg, 120 h, dose level Low, time 5 day
[3] = 1500 mg/kg, 72 h, dose level High, time 3 day
[4] = 1500 mg/kg, 120 h, dose level High, time 5 day

Cc1ccc(S(=O)(=O)NC(=O)NN2CC3CCCC3C2)cc1 (configuration not stated) [GLICLAZIDE]
ABSOLUTE BASOPHIL [1]: 0 CELLS/uL | ABSOLUTE EOSINOPHIL [1]: 0 CELLS/uL | ABSOLUTE LYMPHOCYTE [1]: 14055.67 CELLS/uL | ABSOLUTE MONOCYTE [1]: 174.33 CELLS/uL | ABSOLUTE SEGMENTED NEUTROPHIL [1]: 3203.33 CELLS/uL | BASOPHIL [1]: 0% | EOSINOPHIL [1]: 0% | ERYTHROCYTE COUNT [1]: 5.24 x10E6/uL | HEMATOCRIT [1]: 35.87% | HEMOGLOBIN [1]: 13.1 G/DL | LEUKOCYTE COUNT [1]: 17.43 x10E3/uL | LYMPHOCYTE [1]: 80.33% | MEAN CORPUSCULAR HEMOGLOBIN [1]: 25.37 pg | MEAN CORPUSCULAR HEMOGLOBIN CONCENTRATION [1]: 36.67 G/DL | MEAN CORPUSCULAR VOLUME [1]: 70.43 fL | MONOCYTE [1]: 1% | NEUTROPHIL [1]: 18.67% | NUCLEATED RED BLOOD CELLS [1]: 7 /100WBC | PLATELET COUNT [1]: 1164.33 x10E3/uL | ALANINE AMINOTRANSFERASE [1]: 49.67 u/L | ALBUMIN [1]: 4.1 G/DL | ALKALINE PHOSPHATASE [1]: 346.33 u/L | ASPARTATE AMINOTRANSFERASE [1]: 96.67 u/L | BLOOD UREA NITROGEN [1]: 16 mg/dL | CARBON DIOXIDE [1]: 25 mmol/L | CHLORIDE [1]: 100.33 MEQ/L | CHOLESTEROL [1]: 66.67 mg/dL | CREATINE PHOSPHOKINASE [1]: 653 u/L | CREATININE [1]: 0.19 mg/dL | GLUCOSE [1]: 179.33 mg/dL | LACTATE DEHYDROGENASE [1]: 157.33 u/L | LIPASE [1]: 10 u/L | PHOSPHORUS [1]: 13.27 mg/dL | POTASSIUM [1]: 6.4 MEQ/L | SODIUM [1]: 142.3 MEQ/L | TOTAL BILIRUBIN [1]: 0.27 mg/dL | TOTAL PROTEIN [1]: 5.77 G/DL | URIC ACID [1]: 2.23 mg/dL | ABSOLUTE BASOPHIL [2]: 0 CELLS/uL | ABSOLUTE EOSINOPHIL [2]: 0 CELLS/uL | ABSOLUTE LYMPHOCYTE [2]: 12400.33 CELLS/uL | ABSOLUTE MONOCYTE [2]: 0 CELLS/uL | ABSOLUTE SEGMENTED NEUTROPHIL [2]: 2133 CELLS/uL | BASOPHIL [2]: 0% | EOSINOPHIL [2]: 0% | ERYTHROCYTE COUNT [2]: 5.84 x10E6/uL | HEMATOCRIT [2]: 35.33% | HEMOGLOBIN [2]: 14.07 G/DL | LEUKOCYTE COUNT [2]: 14.53 x10E3/uL | LYMPHOCYTE [2]: 86% | MEAN CORPUSCULAR HEMOGLOBIN [2]: 24.13 pg | MEAN CORPUSCULAR HEMOGLOBIN CONCENTRATION [2]: 39.8 G/DL | MEAN CORPUSCULAR VOLUME [2]: 60.6 fL | MONOCYTE [2]: 0% | NEUTROPHIL [2]: 14% | NUCLEATED RED BLOOD CELLS [2]: 0 /100WBC | PLATELET COUNT [2]: 1074.33 x10E3/uL | ALANINE AMINOTRANSFERASE [2]: 49 u/L | ALBUMIN [2]: 4.23 G/DL | ALKALINE PHOSPHATASE [2]: 441 u/L | ASPARTATE AMINOTRANSFERASE [2]: 113.67 u/L | BLOOD UREA NITROGEN [2]: 15.33 mg/dL | CARBON DIOXIDE [2]: 25 mmol/L | CHLORIDE [2]: 101.33 MEQ/L | CHOLESTEROL [2]: 63.33 mg/dL | CREATINE PHOSPHOKINASE [2]: 738.33 u/L | CREATININE [2]: 0.19 mg/dL | GLUCOSE [2]: 153.67 mg/dL | LACTATE DEHYDROGENASE [2]: 958 u/L | LIPASE [2]: 9 u/L | PHOSPHORUS [2]: 11.2 mg/dL | POTASSIUM [2]: 6.16 MEQ/L | SODIUM [2]: 141.57 MEQ/L | TOTAL BILIRUBIN [2]: 0.2 mg/dL | TOTAL PROTEIN [2]: 5.97 G/DL | URIC ACID [2]: 1.43 mg/dL | ABSOLUTE BASOPHIL [3]: 0 CELLS/uL | ABSOLUTE EOSINOPHIL [3]: 66 CELLS/uL | ABSOLUTE LYMPHOCYTE [3]: 14884.33 CELLS/uL | ABSOLUTE MONOCYTE [3]: 365.67 CELLS/uL | ABSOLUTE SEGMENTED NEUTROPHIL [3]: 2117.33 CELLS/uL | BASOPHIL [3]: 0% | EOSINOPHIL [3]: 0.33% | ERYTHROCYTE COUNT [3]: 6.45 x10E6/uL | HEMATOCRIT [3]: 39.57% | HEMOGLOBIN [3]: 15.77 G/DL | LEUKOCYTE COUNT [3]: 17.43 x10E3/uL | LYMPHOCYTE [3]: 85.33% | MEAN CORPUSCULAR HEMOGLOBIN [3]: 24.4 pg | MEAN CORPUSCULAR HEMOGLOBIN CONCENTRATION [3]: 39.83 G/DL | MEAN CORPUSCULAR VOLUME [3]: 61.27 fL | MONOCYTE [3]: 2% | NEUTROPHIL [3]: 12.33% | NUCLEATED RED BLOOD CELLS [3]: 0 /100WBC | PLATELET COUNT [3]: 1204.33 x10E3/uL | ALANINE AMINOTRANSFERASE [3]: 29 u/L | ALBUMIN [3]: 4.03 G/DL | ALKALINE PHOSPHATASE [3]: 337.33 u/L | ASPARTATE AMINOTRANSFERASE [3]: 85.67 u/L | BLOOD UREA NITROGEN [3]: 17.33 mg/dL | CARBON DIOXIDE [3]: 26.33 mmol/L | CHLORIDE [3]: 100.67 MEQ/L | CHOLESTEROL [3]: 39.33 mg/dL | CREATINE PHOSPHOKINASE [3]: 319 u/L | CREATININE [3]: 0.14 mg/dL | GLUCOSE [3]: 104.67 mg/dL | LACTATE DEHYDROGENASE [3]: 118.33 u/L | LIPASE [3]: 8.67 u/L | PHOSPHORUS [3]: 11.03 mg/dL | POTASSIUM [3]: 6.27 MEQ/L | SODIUM [3]: 141.67 MEQ/L | TOTAL BILIRUBIN [3]: 0.13 mg/dL | TOTAL PROTEIN [3]: 5.43 G/DL | URIC ACID [3]: 2.57 mg/dL | ABSOLUTE BASOPHIL [4]: 0 CELLS/uL | ABSOLUTE EOSINOPHIL [4]: 0 CELLS/uL | ABSOLUTE LYMPHOCYTE [4]: 11101.33 CELLS/uL | ABSOLUTE MONOCYTE [4]: 80.33 CELLS/uL | ABSOLUTE SEGMENTED NEUTROPHIL [4]: 1151.67 CELLS/uL | BASOPHIL [4]: 0% | EOSINOPHIL [4]: 0% | ERYTHROCYTE COUNT [4]: 6.29 x10E6/uL | HEMATOCRIT [4]: 37% | HEMOGLOBIN [4]: 14.7 G/DL | LEUKOCYTE COUNT [4]: 12.33 x10E3/uL | LYMPHOCYTE [4]: 90% | MEAN CORPUSCULAR HEMOGLOBIN [4]: 23.4 pg | MEAN CORPUSCULAR HEMOGLOBIN CONCENTRATION [4]: 39.8 G/DL | MEAN CORPUSCULAR VOLUME [4]: 58.83 fL | MONOCYTE [4]: 0.67% | NEUTROPHIL [4]: 9.33% | NUCLEATED RED BLOOD CELLS [4]: 0 /100WBC | PLATELET COUNT [4]: 1131.67 x10E3/uL | ALANINE AMINOTRANSFERASE [4]: 46 u/L | ALBUMIN [4]: 4.17 G/DL | ALKALINE PHOSPHATASE [4]: 318 u/L | ASPARTATE AMINOTRANSFERASE [4]: 93 u/L | BLOOD UREA NITROGEN [4]: 21.33 mg/dL | CARBON DIOXIDE [4]: 23.33 mmol/L | CHLORIDE [4]: 103.67 MEQ/L | CHOLESTEROL [4]: 44.67 mg/dL | CREATINE PHOSPHOKINASE [4]: 248.33 u/L | CREATININE [4]: 0.18 mg/dL | GLUCOSE [4]: 101.67 mg/dL | LACTATE DEHYDROGENASE [4]: 168.33 u/L | LIPASE [4]: 10 u/L | PHOSPHORUS [4]: 10.43 mg/dL | POTASSIUM [4]: 6.21 MEQ/L | SODIUM [4]: 144.47 MEQ/L | TOTAL BILIRUBIN [4]: 0.1 mg/dL | TOTAL PROTEIN [4]: 5.7 G/DL | URIC ACID [4]: 1.7 mg/dL
